The results in this text go back to patent US8648088B2, “Ethynyl nitrogen containing heteroaryl pyrazolidin-3-one derivatives” (Hoffmann-La Roche Inc., priority 2011, dated 2014).

Assay [1] has as its target T1, human mGlu5a receptor (Homo sapiens, UniProt P41594). Nature of the assay: Intracellular Ca2+ mobilization assay (mGlu5 PAM). It is filed as cell-based. Details: expressed in transfected cells. The following applies: for Emax: HEK293, maximal response in % of maximal stimulatory effect of saturating L-glutamate, HEK-293 human mGlu5a, read-out: Eff. (%); for EC50: HEK-293 cells stably expressing human mGlu5a, L-glutamate added at EC20, read-out: EC50 (nM) mGlu5PAM. Here is the method: A monoclonal HEK-293 cell line stably transfected with a cDNA encoding for the human mGlu5a receptor was generated; for the work with mGlu5 Positive Allosteric Modulators (PAMs), a cell line with low receptor expression levels and low constitutive receptor activity was selected to allow the differentiation of agonistic versus PAM activity. Cells were cultured according to standard protocols (Freshney, 2000) in Dulbecco's Modified Eagle Medium with high glucose supplemented with 1 mM glutamine, 10% (vol/vol) heat-inactivated bovine calf serum, Penicillin/Streptomycin, 50 μg/ml hygromycin and 15 μg/ml blasticidin (all cell culture reagents and antibiotics from Invitrogen, Basel, Switzerland).
About 24 hrs before an experiment, 5×10^4 cells/well were seeded in poly-D-lysine coated, black/clear-bottomed 96-well plates. The cells were loaded with 2.5 μM Fluo-4AM in loading buffer (1×HBSS, 20 mM HEPES) for 1 hr at 37° C. and washed five times with loading buffer. The cells were transferred into a Functional Drug Screening System 7000 (Hamamatsu, Paris, France), and 11 half logarithmic serial dilutions of test compound at 37° C. were added and the cells were incubated for 10-30 min with on-line recording of fluorescence. Following this pre-incubation step, the agonist L-glutamate was added to the cells at a concentration corresponding to EC20 (typically around 80 μM) with on-line recording of fluorescence; in order to account for day-to-day variations in the responsiveness of cells, the EC20 of glutamate was determined immediately ahead of each experiment by recording of a full dose-response curve of glutamate.
Responses were measured as peak increase in fluorescence minus basal (i.e. fluorescence without addition of L-glutamate), normalized to the maximal stimulatory effect obtained with saturating concentrations of L-glutamate. Graphs were plotted with the % maximal stimulatory using XLfit, a curve fitting program that iteratively plots the data using Levenburg Marquardt algorithm. The single site competition analysis equation used was y=A+((B−A)/(1+((x/C)D))), where y is the % maximal stimulatory effect, A is the minimum y, B is the maximum y, C is the EC50, x is the log 10 of the concentration of the competing compound and D is the slope of the curve (the Hill Coefficient). From these curves the EC50 (concentration at which half maximal stimulation was achieved), the Hill coefficient as well as the maximal response in % of the maximal stimulatory effect obtained with saturating concentrations of L-glutamate were calculated.
A depression of the signal observed after addition of the EC20 concentration of L-glutamate was indicative of an inhibitory activity of the test compound.
In the table below are shown the prepared compounds 1-24 with corresponding results (EC50 in nM).
For orientation: A change in cytosolic calcium serves as a functional read-out for many receptors and channels.

Assay [2] concerns the target T1, human mGlu5a receptor. Nature of the assay: [3H]MPEP binding competition on human mGlu5a receptor membranes. Details: expressed in transfected cells; host or cells: EBNA cells (transient), membrane homogenates. The following applies: [3H]MPEP (2 nM) competition, EBNA cell membranes, 1 h at 4° C.; read-out: Human mGluR5 Ki. Here is the method:
Examples 18, 20-22 have been tested on human mGluR5 receptor using the following method:
For binding experiments, cDNA encoding human mGlu 5a receptor was transiently transfected into EBNA cells using a procedure described by Schlaeger and Christensen [Cytotechnology 15:1-13 (1998)]. Cell membrane homogenates were stored at −80° C. until the day of assay where upon they were thawed and resuspended and polytronized in 15 mM Tris-HCl, 120 mM NaCl, 100 mM KCl, 25 mM CaCl2, 25 mM MgCl2 binding buffer at pH 7.4 to a final assay concentration of 20 μg protein/well.
Saturation isotherms were determined by addition of twelve [^3H]MPEP concentrations (0.04-100 nM) to these membranes (in a total volume of 200 μl) for 1 h at 4° C. Competition experiments were performed with a fixed concentration of [^3H]MPEP (2 nM) and IC50 values of test compounds evaluated using 11 concentrations (0.3-10,000 nM). Incubations were performed for 1 h at 4° C.
At the end of the incubation, membranes were filtered onto unifilter (96-well white microplate with bonded GF/C filter preincubated 1 h in 0.1% PEI in wash buffer, Packard BioScience, Meriden, Conn.) with a Filtermate 96 harvester (Packard BioScience) and washed 3 times with cold 50 mM Tris-HCl, pH 7.4 buffer. Nonspecific binding was measured in the presence of 10 μM MPEP. The radioactivity on the filter was counted (3 min) on a Packard Top-count microplate scintillation counter with quenching correction after addition of 45 μl of microscint 40 (Canberra Packard S.A., Zürich, Switzerland) and shaking for 20 min.
For binding experiments the Ki values of the compounds tested are given. The Ki value is defined by the following formula: Ki=IC50/[1+L/Kd] in which the IC50 values are those concentrations of the compounds tested which cause 50% inhibition of the competing radioligand ([^3H]MPEP). L is the concentration of radioligand used in the binding experiment and the Kd value of the radioligand is empirically determined for each batch of membranes prepared.

T1 sequence (P41594 21-1180 isoform P41594-2 limits assumed): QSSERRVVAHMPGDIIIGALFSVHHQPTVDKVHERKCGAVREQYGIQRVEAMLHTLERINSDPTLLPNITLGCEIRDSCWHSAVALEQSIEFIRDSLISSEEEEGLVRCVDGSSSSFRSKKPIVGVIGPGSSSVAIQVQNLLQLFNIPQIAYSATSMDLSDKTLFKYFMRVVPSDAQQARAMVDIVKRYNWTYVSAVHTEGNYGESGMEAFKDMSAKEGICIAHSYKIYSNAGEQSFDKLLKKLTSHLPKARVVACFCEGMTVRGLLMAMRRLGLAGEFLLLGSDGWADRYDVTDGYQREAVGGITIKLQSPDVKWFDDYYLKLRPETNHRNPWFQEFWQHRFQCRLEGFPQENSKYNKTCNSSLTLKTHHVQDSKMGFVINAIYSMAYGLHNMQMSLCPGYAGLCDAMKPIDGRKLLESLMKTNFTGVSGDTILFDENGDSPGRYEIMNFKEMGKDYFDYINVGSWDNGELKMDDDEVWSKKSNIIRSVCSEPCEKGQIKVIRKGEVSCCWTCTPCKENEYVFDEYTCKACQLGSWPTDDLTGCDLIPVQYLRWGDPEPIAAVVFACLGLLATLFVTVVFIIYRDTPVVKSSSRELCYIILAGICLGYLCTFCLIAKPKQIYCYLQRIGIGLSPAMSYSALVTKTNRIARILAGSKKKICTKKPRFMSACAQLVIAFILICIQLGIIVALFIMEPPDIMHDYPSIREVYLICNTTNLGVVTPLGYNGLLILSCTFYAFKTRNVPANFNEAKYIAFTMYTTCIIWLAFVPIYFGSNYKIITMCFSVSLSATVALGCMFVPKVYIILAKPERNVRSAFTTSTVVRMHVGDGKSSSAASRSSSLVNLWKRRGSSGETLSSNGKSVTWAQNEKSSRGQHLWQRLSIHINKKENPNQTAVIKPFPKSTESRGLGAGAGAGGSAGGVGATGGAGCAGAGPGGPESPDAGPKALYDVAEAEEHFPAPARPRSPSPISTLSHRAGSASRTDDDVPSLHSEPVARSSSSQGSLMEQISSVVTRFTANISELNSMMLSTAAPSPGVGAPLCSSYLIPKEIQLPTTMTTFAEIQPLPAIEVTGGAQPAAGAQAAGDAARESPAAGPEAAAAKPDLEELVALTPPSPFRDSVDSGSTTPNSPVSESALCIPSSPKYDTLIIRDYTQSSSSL

On to `O=C1CC2CCCN2N1c1ncc(C#Cc2ccccc2)cn1` (racemic) [Example 11, (RS)-1-(5-Phenylethynyl-pyrimidin-2-yl)-tetrahydro-pyrrolo[1,2-b]pyrazol-2-one], for which, on human mGlu5a receptor [1], the Emax is 55% and the EC50 is 60 nM.
For the compound `CC1(C)CC(=O)N(c2ccc(C#Cc3ccccc3)cn2)N1` [Example 1, 5,5-Dimethyl-2-(5-phenylethynyl-pyridin-2-yl)-pyrazolidin-3-one], at human mGlu5a receptor [1], the Emax came out at 60% and the EC50 came out at 7 nM.
For `Cc1cccc(C#Cc2ccc(N3C(=O)CC(C)(C)N3C)nc2)c1` [Example 4, 1,5,5-Trimethyl-2-(5-m-tolylethynyl-pyridin-2-yl)-pyrazolidin-3-one], at human mGlu5a receptor [1], the Emax stood at 72% and the EC50 came to 72 nM.
`O=C1CC2CCCN2N1c1ncc(C#Cc2cccc(F)c2)cn1` (racemic) [Example 12, (RS)-1-[5-(3-Fluoro-phenylethynyl)-pyrimidin-2-yl]-tetrahydro-pyrrolo[1,2-b]pyrazol-2-one]: on human mGlu5a receptor [1], the Emax worked out at 59% and the EC50 stood at 22 nM.
Regarding `CN1N(c2ccc(C#Cc3ccnc(Cl)c3)cn2)C(=O)CC1(C)C` [Example 18, 2-[5-(2-Chloro-pyridin-4-ylethynyl)-pyridin-2-yl]-1,5,5-trimethyl-pyrazolidin-3-one], on human mGlu5a receptor [2], the Ki is 103 nM.
Still for that read-out and setting: the figure for `CCN1N(c2ccc(C#Cc3ccccc3)cn2)C(=O)CC1(C)C` [Example 21, 1-Ethyl-5,5-dimethyl-2-(5-phenylethynyl-pyridin-2-yl)-pyrazolidin-3-one] is 53.5 nM.
Take `CN1N(c2ccc(C#Cc3ccccc3)cn2)C(=O)CC1(C)C` [Example 3, 1,5,5-Trimethyl-2-(5-phenylethynyl-pyridin-2-yl)-pyrazolidin-3-one]: at human mGlu5a receptor [1], the Emax amounted to 96% and the EC50 was found to be 30 nM.
Regarding `CN1N(c2ncc(C#Cc3cccc(F)c3)cn2)C(=O)CC1(C)C` [Example 15, 2-[5-(3-Fluoro-phenylethynyl)-pyrimidin-2-yl]-1,5,5-trimethyl-pyrazolidin-3-one], at human mGlu5a receptor [1], the Emax amounted to 61% and the EC50 was determined as 34 nM.
Consider `CN1N(c2ncc(C#Cc3cc(F)ccc3F)cn2)C(=O)CC1(C)C` [Example 17, 2-[5-(2,5-Difluoro-phenylethynyl)-pyrimidin-2-yl]-1,5,5-trimethyl-pyrazolidin-3-one], for which, on human mGlu5a receptor [1], the Emax came out at 47% and the EC50 was determined as 35 nM.
The like results for `CN1N(c2ccc(C#Cc3cccc(F)c3)cn2)C(=O)CC1(C)C` [Example 6, 2-[5-(3-Fluoro-phenylethynyl)-pyridin-2-yl]-1,5,5-trimethyl-pyrazolidin-3-one] were, in that order, 109% and 36 nM.
The matching figures for `O=C1CC2CCCN2N1c1ncc(C#Cc2ccc(F)cc2)cn1` (racemic) [Example 13, (RS)-1-[5-(4-Fluoro-phenylethynyl)-pyrimidin-2-yl]-tetrahydro-pyrrolo[1,2-b]pyrazol-2-one]: 58% and 41 nM.
The like results for `CC(C)C1CC(=O)N(c2ccc(C#Cc3ccccc3)cn2)N1` (racemic) [Example 2, (RS)-5-Isopropyl-2-(5-phenylethynyl-pyridin-2-yl)-pyrazolidin-3-one] were, in that order, 73% and 24 nM.
As to `O=C1CC2CCCN2N1c1ccc(C#Cc2ccccc2)cn1` (racemic) [Example 10, (RS)-1-(5-Phenylethynyl-pyridin-2-yl)-tetrahydro-pyrrolo[1,2-b]pyrazol-2-one], on human mGlu5a receptor [1], the Emax was found to be 73% and the EC50 amounted to 35 nM.
The like results for `CN1N(c2ncc(C#Cc3ccc(F)cc3)cn2)C(=O)CC1(C)C` [Example 16, 2-[5-(4-Fluoro-phenylethynyl)-pyrimidin-2-yl]-1,5,5-trimethyl-pyrazolidin-3-one] were, in that order, 69% and 56 nM.
Regarding `CC1(C(F)(F)F)CC(=O)N(c2ccc(C#Cc3ccccc3)cn2)N1` (racemic) [Example 24, (RS)-5-Methyl-2-(5-phenylethynyl-pyridin-2-yl)-5-trifluoromethyl-pyrazolidin-3-one], on human mGlu5a receptor [1], the Emax was 92% and the EC50 was found to be 71 nM.
`CC1(C)CC(=O)N(c2ncc(C#Cc3ccccc3)cn2)N1` [Example 9, 5,5-Dimethyl-2-(5-phenylethynyl-pyrimidin-2-yl)-pyrazolidin-3-one]: at human mGlu5a receptor [1], the Emax was found to be 39% and the EC50 is 46 nM.
The like results for `CCN1C(C(C)C)CC(=O)N1c1ccc(C#Cc2ccccc2)cn1` (racemic) [Example 23, (RS)-1-Ethyl-5-isopropyl-2-(5-phenylethynyl-pyridin-2-yl)-pyrazolidin-3-one] were, in that order, 46% and 106 nM.
In the case of `CN1N(c2ncc(C#Cc3ccccc3)cn2)C(=O)CC1(C)C` [Example 14, 1,5,5-Trimethyl-2-(5-phenylethynyl-pyrimidin-2-yl)-pyrazolidin-3-one], on human mGlu5a receptor [1], the Emax amounted to 66% and the EC50 worked out at 33 nM.
Take `CC1(C)CC(=O)N(c2ccc(C#Cc3cc(F)ccc3F)nn2)N1` [Example 19, 2-[6-(2,5-Difluoro-phenylethynyl)-pyridazin-3-yl]-5,5-dimethyl-pyrazolidin-3-one]: at human mGlu5a receptor [1], the Emax was found to be 86% and the EC50 stood at 86 nM.
The matching figures for `CC1(C)CC(=O)N(c2ccc(C#Cc3cccc(F)c3)cn2)N1` [Example 5, 2-[5-(3-Fluoro-phenylethynyl)-pyridin-2-yl]-5,5-dimethyl-pyrazolidin-3-one]: 31% and 13 nM.
The matching figures for `CN1N(c2ccc(C#Cc3cccc(Cl)c3)cn2)C(=O)CC1(C)C` [Example 7, 2-[5-(3-Chloro-phenylethynyl)-pyridin-2-yl]-1,5,5-trimethyl-pyrazolidin-3-one]: 55% and 90 nM.
The like results for `CC1(C)CC(=O)N(c2ccc(C#Cc3ccc(F)cc3)cn2)N1` [Example 8, 2-[5-(4-Fluoro-phenylethynyl)-pyridin-2-yl]-5,5-dimethyl-pyrazolidin-3-one] were, in that order, 38% and 13 nM.
As to `CC1(C)CC(=O)N(c2ccc(C#Cc3cc(F)ccc3F)cn2)N1` [Example 20, 2-[5-(2,5-Difluoro-phenylethynyl)-pyridin-2-yl]-5,5-dimethyl-pyrazolidin-3-one], the Ki at human mGlu5a receptor [2] stood at 69.7 nM.

Broadly, the EC50 is the concentration that produces a half-maximal response. What is called Ki is the equilibrium dissociation constant of an inhibitor or competing ligand from its target.
